We go through two molecules from PMC8765048 (JCI Insight, 2022).

What all share (experiment): microbe, parasite or virus in culture
Common to all, as to format: cell-based

For assay [1], the system named is SARS-CoV-2 variants. The following applies: Severe acute respiratory syndrome coronavirus 2, Calu-3.
The subject of assay [2] is SARS-CoV-2 variants. Conditions: Severe acute respiratory syndrome coronavirus 2, Vero C1008.
Assay [3] concerns SARS-CoV-2. Conditions: Severe acute respiratory syndrome coronavirus 2; read-out: IC50 values against all viral variants and in all examined cell types.

For the molecule `CCC(CC)COC(=O)[C@H](C)N[P@](=O)(OC[C@H]1O[C@@](C#N)(c2ccc3c(N)ncnn23)[C@H](O)[C@@H]1O)Oc1ccccc1` [Remdesivir, remdesivir, reference compound], in assay [1], 2290 ± 449 nM corresponded to half-maximal inhibition (IC50) and the concentration for an effect of 90% (IC90) was 7200 ± 1000 nM. In addition, in assay [2], the IC50 was found to be 2100 ± 516 nM and the concentration for an effect of 90% (IC90) was determined as 4450 ± 829 nM.

In the case of `NC(=O)c1cn([C@@H]2O[C@H](CO)[C@@H](O)[C@H]2O)c2ncnc(N)c12` [Sangivamycin, sangivamycin], the concentration for half-maximal inhibition (IC50) is 64.3 ± 4.7 nM in assay [1], 42 ± 8.8 nM in assay [2] and 14 to 82 nM in assay [3]. The IC90 in assay [1] came to 255 ± 46.1 nM; in assay [2], 220 ± 42.1 nM.

As usually defined, the IC50 is the concentration at which inhibition is half-maximal. The IC90 is the concentration at which the effect reaches the 90% level.
